According to paper PMC12658820, “Development of Tunable Rose Bengal-Based nanoGUMBOS as Potential Selective Chemotherapeutic Agents” (ACS Omega, 2025):
Values joined by “and” are separate entries in the source; they are usually repeats but may differ in a detail not shown here. Equal values may be shown once. “Also recorded” adds a separate entry of the source. Where a name gives a salt, the structure may show the parent alone.

What was measured:
[1] = Octanol/water partition experiments; assay type: physicochemical; conditions: stirred 24 h, absorbance at 562 nm, triplicate
[2] = Dynamic light scattering (DLS) nanoparticle size; assay type: physicochemical; conditions: 10 μM solutions of nanoGUMBOS
Description: (§1) The series of RB-based nanoGUMBOS was synthesized by a simple reprecipitation method to form nanoparticles from a 10 mM RB-based GUMBOS stock solution in MeOH or DMSO. Briefly, a small aliquot of a MeOH/DMSO solution of each RB-based GUMBOS was rapidly introduced into a large volume of an aqueous cell medium (Dulbecco’s modified Eagle’s medium (DMEM), containing 10% fetal bovine serum) or water under ultrasonication. In this condition, a supersaturation of the hydrophobic RB-based GUMBOS is achieved in the aqueous system, leading to the precipitation of the RB-based GUMBOS into small particles. After that, the solution was placed on the bench and allowed to rest for a period of 15 min to allow the nucleation of the nanoparticles.
(§2) Once the incubation period concluded, DLS and S-TEM instruments were used to characterize the nanoGUMBOS. Dynamic light scattering was performed using a Malvern Zetasizer. […] Each compound was scanned at 25 °C for 10 s each scan, and the system automatically adjusted the scans needed per run. S-TEM was employed via the use of a JEOL-SEM 7600F instrument, with a vacuum pressure of 1.9E^–4 Pa, electron beam at 30,000 V, and amplified current of […], with each micrograph content being produced at 8000× magnification. ImageJ software was used for the measurements of electron micrograph images. The polydispersity index from the TEM micrograph was calculated using eq . 1 PDI=sizedeviation(σ)/sizemean(μ)

S-TEM nanoparticle size = assay type: physicochemical; conditions: for TEM mean size / TEM PDI: 10 μM solutions of nanoGUMBOS; for TEM PDI: size deviation/size mean
Description: as §1, §2

DLS ζ-potential = assay type: physicochemical; conditions: nanoGUMBOS, triplicate
Description: Ultraviolet–visible (UV–vis) absorption was measured between 560 and 562 nm using a Jasco V-750 spectrophotometer for the characterization of GUMBOS and nanoGUMBOS experiments. Fluorescence excitation and emission spectra were recorded using a Jasco FP-8500 fluorescence spectrophotometer. Fourier transform infrared (FT-IR) spectra were collected using a Thermo Scientific Nicolet iS20 instrument with 256 scans and a resolution of 4 cm^–1. A JEOL JSM 7600F scanning electron microscope (SEM) was employed for surface imaging and analysis of samples. A Mettler Toledo pH meter was used for measuring the pH of the various solutions. Ultrafast liquid chromatography (UFLC) coupled with a SHIMADZU electrospray ionization-mass spectrometer (ESI-MS) system was used for the characterization of the synthesized GUMBOS. ^1H and ^13C NMR spectra were collected using a JEOL ECZL-400S NMR spectrometer (400 MHz, CCRL05) equipped with a 24-position autosample changer and autotune probe. Dynamic light scattering (DLS) and ζ-potential measurements were conducted by using a Malvern Zetasizer Nano-Series system. The blood–brain barrier permeability was assessed by using a Bioassay Systems Parallel Artificial Membrane Permeability Assay-BBB Kit. Confocal fluorescence imaging was performed using a Zeiss confocal laser scanning microscope, LSM-710, equipped with an inverted Axio Observer Z1 platform and Airyscan detection. Triple-deionized water was purified by using a Millipore Milli-Q system.
as §2, with “ImageJ software was used for the measurements of electron micrograph images.” left out, “1 PDI=sizedeviation(σ)/sizemean(μ)” left out

[3] = test system: A549 lung carcinoma cells; assay: Confocal microscopy cell viability (DAPI-stained nuclei), A549; assay type: cell-based, human; conditions: for average cell viability, A549 / cell viability versus control, statistical significance, A549 / average viability decrease, A549: 10 μM nanoGUMBOS; for average cell viability, A549: no light activation, % of control; for cell viability versus control, statistical significance, A549: unpaired t-test; for nuclear morphology in fluorescence imaging: DAPI staining, in the dark, A549 and HEK293 imaged; for selectivity index (SI): cytotoxicity of A549 cells / cytotoxicity of HEK293 cells
Description: (§3) HEK293 or A549 Cells were collected from a T-25 culture flask following a standard cell culture harvesting procedure. A549 cells were diluted in cell culture media to a concentration of roughly 1,35,000 cells/mL. From this, the cells were loaded into individual chambers on an eight-chamber microscope slide, with a cell count per chamber of roughly 60,000 cells. This slide was then placed in an incubator (37 °C and 5.0% CO2 conditions) for 24 h before treating. When the treatment began, the original cell culture media was removed from the cells, and a compound/media mixture was added to each well. A control group of only cell culture media/DMSO was prepared and applied to one chamber in the slide, with the others consisting of treatment groups, following a serial dilution from 10 μM down to 0.15625 μM. After applying the treatment, the plate was returned to the incubator for 24 h. Following the incubation period, the cells were fixed using a 4% formaldehyde solution in the PBS buffer for 15 min at room temperature. After 15 min, the cells were washed three times with PBS. Then, to prepare the cells for staining, 0.5% Triton X-100 in PBS was applied to the cells for 15 min at room temperature. This was followed by three washes with PBS again. A 3% bovine serum albumin in PBS buffer was added to the cells for 60 min to block potential nonspecific binding sites for later 4′,6-diamidino-2-phenylindole (DAPI) staining. Another three washes with PBS were applied to the cells, and the cells were stained with a 1 μg/mL solution of DAPI and a mounting solution.
(§4) The imaging method employed fluorescence microscopy for nuclear staining visualization, allowing for an accurate quantification of viable cells based on intact nuclear morphology. ImageJ software was used to count the cell nuclei in each image. To avoid background signal, the software was set to only include nuclei of 20 μm^2 or larger. Viability quantification was performed by counting intact, properly stained nuclei and expressing results as a percentage of control values, with error bars representing standard error of the mean (SEM) from triplicate experiments. Statistical analysis was performed using unpaired t-tests with significance set at p < 0.05. Each nanoGUMBOS treatment was compared independently to control within the same cell lines, representing planned pairwise comparisons rather than exploratory testing. Given this, each nanoGUMBOS formulation that reduces cell viability will be assessed for an untreated cell line. Comparisons are made within discrete experimental groups for each cell line; thus, the unpaired t-test is employed. Dose–response curves and IC50 values were generated using a four-parameter logistic regression model implemented in Python (v3.12) within Jupyter Notebook (Anaconda distribution). Curve fitting was performed with the SciPy package (version 1.13), and figures were prepared using Matplotlib (v3.9). The rationale for selecting A549 (lung carcinoma) and HEK293 (noncancerous embryonic kidney) cell lines was based on their well-characterized nature and widespread use in cancer research, representing a relevant cancer model and a noncancerous control, respectively. […] Selectivity will be calculated using eq . 5 SI=cytotoxicityofA549cells/cytotoxicityofHEK293cells

[4] = test system: HEK293 human embryonic kidney cells; assay: Confocal microscopy cell viability (DAPI-stained nuclei), HEK293; assay type: cell-based; conditions: 10 μM nanoGUMBOS; for cell viability versus control, statistical significance, HEK293: unpaired t-test
Description: as §3, §4

A549 cells = test system: A549 cells; design: method as in numbers not shown in text; conditions: literature comparison, ref numbers not shown in text; cited from earlier work

| Molecule | K o/w (octanol–water partition constant) [1] | DLS PDI [2] | DLS mean size [2] [nm] | DLS mean size ([2]; listed as [Na] 2 [RB]) [nm] | TEM mean size (S-TEM nanoparticle size) [nm] | TEM PDI (S-TEM nanoparticle size) | ζ-potential (DLS ζ-potential) | average cell viability, A549 ([3]; 24 h) | cell viability versus control, statistical significance, A549 [3] | nuclear morphology in fluorescence imaging ([3]; nanoGUMBOS, 24 h) | cell viability versus control, statistical significance, HEK293 [4] | selectivity index (A549 cells) | average viability decrease, A549 ([3]; 24 h) [%] | selectivity index (SI) [3] | IC50 ([3]; nanoGUMBOS, 24 h, four-parameter logistic fit, read-out: IC50 against A549 cells) | cell viability decrease, HEK293 ([4]; 24 h) [%] | cell viability, HEK293 ([4]; 24 h, % of control) [%] | DLS mean size ([2]; listed as [TPP] 2 [RB]) [nm] | nanoparticle diameter (method not stated at the place) (S-TEM nanoparticle size; nanoGUMBOS by reprecipitation) |
| --- | --- | --- | --- | --- | --- | --- | --- | --- | --- | --- | --- | --- | --- | --- | --- | --- | --- | --- | --- |
| O=C(O)c1c(Cl)c(Cl)c(Cl)c(Cl)c1-c1c2cc(I)c(=O)c(I)c-2oc2c(I)c(O)c(I)cc12 [[Na]2[RB], Rose Bengal disodium salt, reference compound] | 4.5 | 0.58 | 230.9 | 230.90 ± 17.89 | 268.62 ± 74.02 | 0.28 | −18.4 mV | 86.7% | no statistically significant difference | minimal cellular changes | no statistically significant difference | – | – | – | – | – | – | – | – |
| tetrabutylphosphonium Rose Bengal [[TBP]2[RB]] | – | – | – | – | – | – | – | – | no statistically significant difference | minimal cellular changes | no statistically significant difference | – | – | – | – | – | – | – | – |
| COc1cccc2c1C(=O)c1c(O)c3c(c(O)c1C2=O)C[C@@](O)(C(=O)CO)C[C@@H]3O[C@H]1C[C@H](N)[C@H](O)[C@H](C)O1 [Doxorubicin] | – | – | – | – | – | – | – | – | – | – | – | 1.5 | – | – | – | – | – | – | – |
| CCCCCCCCCCCCn1cc[n+](C)c1.CCCCCCCCCCCCn1cc[n+](C)c1.O=C([O-])c1c(Cl)c(Cl)c(Cl)c(Cl)c1-c1c2cc(I)c(=O)c(I)c-2oc2c(I)c([O-])c(I)cc12 [[C12MIm]2[RB], 1-dodecyl-3-methylimidazolium Rose Bengal] | 2.5 | 0.37 | 59.87 ± 8.23 | – | 70.31 ± 16.43 | 0.23 | ≈ −30 mV | – | statistically significant reductions in cell viability; also recorded: statistically significant decrease in cell viability | altered nuclear morphology consistent with apoptotic processes | statistically significant reductions in cell viability; also recorded: statistically significant decrease in cell viability | – | 77.4 | 2.1 | 2160 nM and 2200 nM | 63.1 | 47.1 | – | – |
| O=C([O-])c1c(Cl)c(Cl)c(Cl)c(Cl)c1-c1c2cc(I)c(=O)c(I)c-2oc2c(I)c([O-])c(I)cc12.c1ccc([P+](c2ccccc2)(c2ccccc2)c2ccccc2)cc1.c1ccc([P+](c2ccccc2)(c2ccccc2)c2ccccc2)cc1 [[TPP]2[RB], tetraphenylphosphonium Rose Bengal] | 2.8 | 0.22 | 40.66 | – | 45.33 ± 11.53 | 0.24 | approximately −30 mV | below 50% | statistically significant reductions in cell viability; also recorded: statistically significant decrease in cell viability | altered nuclear morphology consistent with apoptotic processes | statistically significant reductions in cell viability; also recorded: statistically significant decrease in cell viability | – | 57.2 | 1.5 | – | – | – | 40.66 ± 3.33 | below 100 nm |
| N.N.[Cl][Pt][Cl] [cisplatin] | – | – | – | – | – | – | – | – | – | – | – | under 2 | – | – | – | – | – | – | – |
